Experimental data reported in patent US20260306640A1, “TECHNOLOGIES TARGETING CELL STATES” (Auron Therapeutics, Inc., priority 2023, published 2026).

How the values were obtained:
KAT2A = KAT2A (Homo sapiens, UniProt Q92830); test: KAT2A degradation, Western Blot (Jess), NCI-H1048 cells; assay type: cell-based; design: degrader, Western blot (Jess); conditions: NCI-H1048 cells, KAT2A, 24 h, Western Blot, vs DMSO; read-out: KAT2A NCI-H1048 DC50
Method: (§1) MOLM-13 cells or NCI-H1048 cells were used for Western Blot analysis of KAT2A degradation. KAT2B degradation can be measured in a similar manner with NCI-H1048 cells.
(§2) H1048 cells were maintained at 37° C. in 5% CO2 and 90% humidity in HITES medium with 5% fetal bovine serum (FBS). HITES medium was […] with the following additions: 0.005 mg/ml Insulin, 0.01 mg/ml Transferrin, 30 nM Sodium selenite, 10 nM Hydrocortisone, 10 nM beta-estradiol, and extra 2 mM L-glutamine (for final concentration of 4.5 mM). Cells were plated in full media at 1 million cells/2 mL in a 6-well tissue culture treated plate with or without compounds for 24 h at 37° C. in 5% CO2.
(§3) MOLM-13 cells or NCI-H1048 cells were washed with PBS, then lysed with RIPA buffer containing 1×protease and phosphatase inhibitors (SantaCruz Biotechnologies Cat #sc-24948A). Protein was isolated by centrifugation at 12,000×g for 10 minutes at 4° C. and supernatant was collected. Protein was quantified via Bradford assay. Samples were diluted to 4 μg lysate in 16 μL RIPA buffer and then 4 μL of Jess Sample Buffer. Samples were heated at 95° C. for 5 minutes. Samples were loaded onto 12-230 kDa Jess™ Separation Module, 8×25 capillary cartridges (SM-W004, Biotechne). Antibodies loaded were: Primary antibody for KAT2A (GCN5L2 (C26A10) Rabbit mAb (3305, CST)) and for KAT2B (PCAF (C14G9)) Rabbit mAb (3378, CST) at 1:1000 and Anti-Rabbit Detection Module for Jess™ (Cat No #DM-001, Biotechne). Signal was detected by chemiluminescence.
(§4) DC50 values were determined from percent reduction of protein as compared to the DMSO control.

KAT2B = KAT2B (Homo sapiens, UniProt Q92831); test: KAT2B degradation, Western Blot (Jess), NCI-H1048 cells; assay type: cell-based; design: degrader, Western blot (Jess); conditions: NCI-H1048 cells, KAT2B, 24 h, Western Blot, vs DMSO; read-out: KAT2B NCI-H1048 DC50
Method: as §1, §2, §3, §4

Sequence of KAT2B (Q92831 whole entry): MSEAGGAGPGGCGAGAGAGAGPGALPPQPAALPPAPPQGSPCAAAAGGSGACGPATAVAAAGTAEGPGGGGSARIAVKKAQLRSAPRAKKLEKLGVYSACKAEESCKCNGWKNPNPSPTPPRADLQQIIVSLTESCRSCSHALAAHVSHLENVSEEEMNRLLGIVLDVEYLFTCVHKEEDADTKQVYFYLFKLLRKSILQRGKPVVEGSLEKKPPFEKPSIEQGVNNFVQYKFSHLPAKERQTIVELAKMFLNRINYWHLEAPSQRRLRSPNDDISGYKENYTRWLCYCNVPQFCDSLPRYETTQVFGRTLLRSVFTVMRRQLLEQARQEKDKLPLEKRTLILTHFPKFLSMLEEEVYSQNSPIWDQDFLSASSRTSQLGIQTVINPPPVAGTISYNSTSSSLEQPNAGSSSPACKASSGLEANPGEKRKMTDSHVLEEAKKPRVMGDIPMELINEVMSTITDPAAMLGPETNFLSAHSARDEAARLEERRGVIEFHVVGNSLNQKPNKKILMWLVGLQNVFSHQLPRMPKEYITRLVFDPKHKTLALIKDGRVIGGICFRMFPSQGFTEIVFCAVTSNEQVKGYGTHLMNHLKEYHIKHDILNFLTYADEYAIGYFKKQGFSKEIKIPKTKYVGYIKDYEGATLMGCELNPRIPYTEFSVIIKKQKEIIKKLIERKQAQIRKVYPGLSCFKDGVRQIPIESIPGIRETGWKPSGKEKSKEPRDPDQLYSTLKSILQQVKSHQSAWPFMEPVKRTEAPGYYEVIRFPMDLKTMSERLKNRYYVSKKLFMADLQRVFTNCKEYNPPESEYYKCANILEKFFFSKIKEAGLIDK
Sequence of KAT2A (Q92830 whole entry): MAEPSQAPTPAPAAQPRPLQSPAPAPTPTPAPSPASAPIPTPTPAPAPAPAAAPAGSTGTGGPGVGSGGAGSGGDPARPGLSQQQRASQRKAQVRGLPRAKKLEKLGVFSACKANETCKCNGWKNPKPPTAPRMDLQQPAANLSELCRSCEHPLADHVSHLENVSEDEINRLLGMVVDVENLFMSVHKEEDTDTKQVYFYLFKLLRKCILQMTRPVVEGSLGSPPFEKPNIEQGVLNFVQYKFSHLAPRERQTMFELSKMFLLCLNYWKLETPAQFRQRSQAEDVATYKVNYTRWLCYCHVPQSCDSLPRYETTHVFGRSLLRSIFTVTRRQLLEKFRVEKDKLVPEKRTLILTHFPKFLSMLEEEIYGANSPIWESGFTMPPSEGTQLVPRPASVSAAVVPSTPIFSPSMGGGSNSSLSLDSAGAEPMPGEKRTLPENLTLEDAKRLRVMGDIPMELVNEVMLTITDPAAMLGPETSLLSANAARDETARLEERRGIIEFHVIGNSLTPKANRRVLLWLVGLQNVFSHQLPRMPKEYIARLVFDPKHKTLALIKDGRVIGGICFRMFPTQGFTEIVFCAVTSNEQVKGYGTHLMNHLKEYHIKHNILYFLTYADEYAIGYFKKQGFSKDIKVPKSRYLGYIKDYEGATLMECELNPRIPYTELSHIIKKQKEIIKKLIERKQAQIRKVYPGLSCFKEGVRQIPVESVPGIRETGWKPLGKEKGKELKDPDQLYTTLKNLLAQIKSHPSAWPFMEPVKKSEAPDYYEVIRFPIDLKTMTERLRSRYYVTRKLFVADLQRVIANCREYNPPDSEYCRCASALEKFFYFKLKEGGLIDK

| SMILES | DC50 (KAT2A) [nM] | DC50 (KAT2B) [nM] |
| --- | --- | --- |
| CN1C[C@H](Nc2cnn(C)c(=O)c2Br)C[C@H](c2ccc(C(=O)N3CCC4(CC3)CCN(c3ccc(C5CCC(=O)NC5=O)cc3)CC4)cc2)C1 (single isomer, unassigned) [Compound 239] | < 1 | < 1 |
| Cc1cc(N2CCC3(CCN(C(=O)c4ccc([C@H]5C[C@@H](Nc6cnn(C)c(=O)c6Br)CN(C)C5)cc4)CC3)CC2)cc(F)c1C1CCC(=O)NC1=O (some centres unmarked) [Compound 2-69] | < 1 | < 1 |
| CN1C[C@H](Nc2cnn(C)c(=O)c2Br)C[C@H](c2ccc(C(=O)N3CCC4(CC3)CCN(c3cccc5c3C(=O)N(C3CCC(=O)NC3=O)C5=O)CC4)cc2)C1 (some centres unmarked) [Compound 17] | 1 to 30 | 1 to 30 |
| CN1C[C@H](Nc2cnn(C)c(=O)c2Br)C[C@H](c2ccc(C(=O)N3CC(c4ccc(C5CCC(=O)NC5=O)cc4)C3)cc2)C1 (some centres unmarked) [Compound 189] | 1 to 30 | > 30 |
| CN1C[C@H](Nc2cnn(C)c(=O)c2Br)C[C@H](c2ccc(CN3CC(c4cccc(C5CCC(=O)NC5=O)c4)C3)cc2)C1 (some centres unmarked) [Compound 190] | 1 to 30 | > 30 |
| CN1C[C@H](Nc2cnn(C)c(=O)c2Br)C[C@H](c2ccc(C(=O)N3CC(c4cccc(C5CCC(=O)NC5=O)c4)C3)cc2)C1 (some centres unmarked) [Compound 191] | 1 to 30 | > 30 |
| Cc1c(N[C@@H]2C[C@H](c3ccc(COc4ccc5c(c4)C(=O)N(C4CCC(=O)NC4=O)C5=O)cc3)CN(C)C2)cnn(C)c1=O (some centres unmarked) [Compound 192] | < 1 | > 30 |
| CN1C[C@H](Nc2cnn(C)c(=O)c2Cl)C[C@H](c2ccc(C(=O)N3CC(c4cccc(C5CCC(=O)NC5=O)c4)C3)cc2)C1 (some centres unmarked) [Compound 193] | 1 to 30 | > 30 |
| CN1C[C@H](Nc2cnn(C)c(=O)c2Cl)C[C@H](c2ccc(CN3CC(c4cccc(C5CCC(=O)NC5=O)c4)C3)cc2)C1 (some centres unmarked) [Compound 194] | 1 to 30 | > 30 |
| CN1C[C@H](Nc2cnn(C)c(=O)c2Br)C[C@H](c2ccc(CN3CC(c4ccc(C5CCC(=O)NC5=O)cc4)C3)cc2)C1 (some centres unmarked) [Compound 195] | 1 to 30 | > 30 |
| CN1C[C@H](Nc2cnn(C)c(=O)c2Br)C[C@H](c2ccc(CN3CCN(c4cccc5c4oc(=O)n5C4CCC(=O)NC4=O)CC3)cc2)C1 (some centres unmarked) [Compound 196] | < 1 | < 1 |
| CN1C[C@H](Nc2cnn(C)c(=O)c2Br)C[C@H](c2ccc(C(=O)N3CC(c4ccc5c(c4)C(=O)N(C4CCC(=O)NC4=O)C5=O)C3)cc2)C1 (some centres unmarked) [Compound 197] | 1 to 30 | > 30 |
| CN1C[C@H](Nc2cnn(C)c(=O)c2Cl)C[C@H](c2ccc(C(=O)N3CC(c4ccc5c(c4)C(=O)N(C4CCC(=O)NC4=O)C5=O)C3)cc2)C1 (some centres unmarked) [Compound 198] | 1 to 30 | > 30 |
| CN1C[C@H](Nc2cnn(C)c(=O)c2Cl)C[C@H](c2ccc(CN3CC(c4ccc5c(c4)C(=O)N(C4CCC(=O)NC4=O)C5=O)C3)cc2)C1 (some centres unmarked) [Compound 199] | > 30 | > 30 |
| Cc1c(C2CCC(=O)NC2=O)ccc(N2CCC3(CCN(C(=O)c4ccc([C@H]5C[C@@H](Nc6cnn(C)c(=O)c6Cl)CN(C)C5)cc4)CC3)CC2)c1F (some centres unmarked) [Compound 253] | < 1 | – |
| COc1cc(N2CCC3(CCN(C(=O)c4ccc([C@H]5C[C@@H](Nc6cnn(C)c(=O)c6Br)CN(C)C5)cc4)CC3)CC2)cc(F)c1C1CCC(=O)NC1=O (some centres unmarked) [Compound 280] | 1 to 30 | – |
| COc1cc(N2CCC3(CCN(C(=O)c4ccc([C@H]5C[C@@H](Nc6cnn(C)c(=O)c6Cl)CN(C)C5)cc4)CC3)CC2)cc(F)c1C1CCC(=O)NC1=O (some centres unmarked) [Compound 281] | 1 to 30 | – |
| Cc1cc(N2CCC3(CCN(C(=O)c4ccc([C@H]5C[C@@H](Nc6cnn(C)c(=O)c6Br)CN(C)C5)cc4)CC3)CC2)cc(C)c1C1CCC(=O)NC1=O (some centres unmarked) [Compound 282] | < 1 | – |
| CN1C[C@H](Nc2cnn(C)c(=O)c2Br)C[C@H](c2ccc(CN3CCN(c4cncc(C5CCC(=O)NC5=O)c4)CC3)cc2)C1 (some centres unmarked) [Compound 345] | > 30 | – |
| C[C@@H]1CN(c2cccc(C3CCC(=O)NC3=O)c2)C[C@H](C)N1Cc1ccc([C@H]2C[C@@H](Nc3cnn(C)c(=O)c3Br)CN(C)C2)cc1 (some centres unmarked) [Compound 370] | 1 to 30 | – |
| C[C@@H]1CN(c2cccc(C3CCC(=O)NC3=O)c2)C[C@H](C)N1Cc1ccc([C@H]2C[C@@H](Nc3cnn(C)c(=O)c3Cl)CN(C)C2)cc1 (some centres unmarked) [Compound 371] | 1 to 30 | – |
| CN1C[C@H](Nc2cnn(C)c(=O)c2Br)C[C@H](c2ccc(C(=O)N3CCC4(CC3)CCN(c3ccc5c(N6CCC(=O)NC6=O)cncc5c3)CC4)cc2)C1 [Compound 375] | 1 to 30 | – |
| CN1C[C@H](Nc2cnn(C)c(=O)c2Cl)C[C@H](c2ccc(CN3CCC(c4ccc5c(c4)C(=O)N(C4CCC(=O)NC4=O)C5=O)C(F)(F)C3)cc2)C1 (some centres unmarked) [Compound 392] | 1 to 30 | – |
| CN1C[C@H](Nc2cnn(C)c(=O)c2Cl)C[C@H](c2ccc(CN3CCN(c4cccc(CN5CCC(=O)NC5=O)c4)CC3)cc2)C1 [Compound 393] | > 30 | – |
| CN1C[C@H](Nc2cnn(C)c(=O)c2Br)C[C@H](c2ccc(N3CCC4(CC3)CCN(c3cccc(CN5CCC(=O)NC5=O)c3)CC4)cc2)C1 [Compound 400] | 1 to 30 | – |
| CC(=O)N[C@H](C(=O)N1C[C@H](O)C[C@H]1C(=O)NCc1ccc(-c2scnc2C)cc1OCCCCNC(=O)c1ccc([C@H]2C[C@@H](Nc3cnn(C)c(=O)c3Br)CN(C)C2)cc1)C(C)(C)C [Compound 406, (2S,4R)-1-((S)-2-acetamido-3,3-dimethylbutanoyl)-N-(2-(4-(4-((3R,5R)-5-((5-bromo-1-methyl-6-oxo-1,6-dihydropyridazin-4-yl)amino)-1-methylpiperidin-3-yl)benzamido)-butoxy)-4-(4-methylthiazol-5-yl)benzyl)-4-hydroxypyrrolidine-2-carboxamide] | > 30 | – |
| Cc1ncsc1-c1ccc(CNC(=O)[C@@H]2C[C@@H](O)CN2C(=O)[C@@H](NC(=O)C2CCN(C3CCN(C(=O)c4ccc([C@H]5C[C@@H](Nc6cnn(C)c(=O)c6Br)CN(C)C5)cc4)CC3)CC2)C(C)(C)C)cc1 [Compound 410] | – | > 30 |
| Cc1nnc2c3ccccc3c(N[C@@H](C)[C@H](c3ccc(C(=O)N4CCC5(CC4)CCN(c4ccc(C6CCC(=O)NC6=O)cc4)CC5)cc3)N(C)C)nn12 (stereo partly drawn) [Compound 426, 3-(4-(9-(4-((1S,2S)-1-(dimethylamino)-2-((3-methyl-[1,2,4]triazolo[3,4-a]phthalazin-6-yl)amino)propyl)benzoyl)-3,9-diazaspiro[5.5]undecan-3-yl)phenyl)piperidine-2,6-dione] | 1 to 30 | – |
| Cc1nnc2c3ccccc3c(N[C@@H](C)[C@H](c3ccc(CN4CCN(c5cccc(C6CCC(=O)NC6=O)c5)CC4)cc3)N(C)C)nn12 (stereo partly drawn) [Compound 428, 3-(3-(4-(4-((1S,2S)-1-(dimethylamino)-2-((3-methyl-[1,2,4]triazolo[3,4-a]phthalazin-6-yl)amino)propyl)benzyl)piperazin-1-yl)phenyl)piperidine-2,6-dione] | > 30 | – |
| C[C@H](Nc1nn(C)c(=O)n(C)c1=O)[C@H](c1ccc(C(=O)N2CCC3(CC2)CCN(c2ccc(C4CCC(=O)NC4=O)cc2)CC3)cc1)N(C)C (stereo partly drawn) [Compound 431, 6-(((1S,2S)-1-(dimethylamino)-1-(4-(9-(4-(2,6-dioxopiperidin-3-yl)phenyl)-3,9-diazaspiro[5.5]undecane-3-carbonyl)phenyl)propan-2-yl)amino)-2,4-dimethyl-1,2,4-triazine-3,5(2H,4H)-dione] | 1 to 30 | – |
